Twelve compounds from ChEMBL document CHEMBL1201862, “PubChem BioAssay data set” (2004) can be followed below.

Each structure is given as a SMILES string.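 Five concentrations, 48 hours, 96-well plates. GI50 marks 50% less growth.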 The source made the active and inactive calls. No stated cut-off is given here; in the data, active = GI50 up to about 1.1 µM and inactive = higher.

Among the test systems are MOLT-4; ACHN; SNB-75; SW-620; TK-10; SK-MEL-5; OVCAR-8; NCI-H226; A498; MDA-MB-435; DU-145; SK-MEL-28; EKVX; SR; SF-539; NCI-H460; NCI-H23; SNB-19; HCT-15.
Common to all, as to assay: NCI-60 cell line screen, 48 h

For `CCCCC(=O)Oc1ccc2c(C)cc(=O)oc2c1`, the GI50 in the assay with MOLT-4, with ACHN, in the assay on SNB-75, in the assay with SW-620, with TK-10 and in the assay with SK-MEL-5 was > 100 µM (inactive) in each case. Further, the GI50 in the assay with OVCAR-8, in the assay with NCI-H226, in the assay with A498, in the assay with MDA-MB-435, with DU-145 and with SK-MEL-28 was > 100 µM (inactive) in each case. Besides, the GI50 with EKVX, in the assay with SR, in the assay with SF-539, with NCI-H460, with NCI-H23 and in the assay on SNB-19 was > 100 µM (inactive) in each case.

With `CN(C)CCNC1=Nc2ccccc2C(=O)N2CSCC12` (stereo unspecified), the GI50 in the assay on MOLT-4, in the assay with ACHN, in the assay with SNB-75, in the assay on SW-620, with TK-10 and in the assay on SK-MEL-5 was > 100 µM (inactive) each time. Further, the GI50 with OVCAR-8 is > 100 µM (inactive); in the assay with NCI-H226, > 100 µM (inactive); in the assay on A498, > 100 µM (inactive); in the assay on MDA-MB-435 it was > 100 µM (inactive); in the assay on DU-145, > 100 µM (inactive); in the assay with HCT-15 it was over 100 µM. In addition, the GI50 in the assay on SK-MEL-28, in the assay with EKVX, in the assay on SR, in the assay on NCI-H460 and in the assay with SNB-19 was > 100 µM (inactive) throughout.

As to `O=C(CC(C(=O)c1ccoc1)c1ccco1)c1ccco1` (stereo unspecified), the GI50 with MOLT-4, in the assay with ACHN, with SNB-75, with SW-620, with TK-10 and in the assay on SK-MEL-5 was > 100 µM (inactive) in each case. In addition, the GI50 with OVCAR-8 is > 100 µM (inactive); in the assay on NCI-H226, > 100 µM (inactive); in the assay on A498, > 100 µM (inactive); in the assay on MDA-MB-435, 30 µM (inactive); in the assay with DU-145 it was > 100 µM (inactive); with HCT-15, over 100 µM. Also, the GI50 was 37.9 µM (inactive) in the assay on SK-MEL-28; > 100 µM (inactive) with EKVX; 85.7 µM (inactive) with SR; > 100 µM (inactive) in the assay on SF-539; > 100 µM (inactive) with NCI-H460; 98.4 µM (inactive) with NCI-H23.

As for `CC(C)(C)OC(=O)N/N=C(/N)Cc1ccc(Cl)cc1`, the GI50 in the assay with MOLT-4, in the assay on ACHN, in the assay on SNB-75, in the assay with SW-620, with TK-10 and in the assay with SK-MEL-5 was > 100 µM (inactive) each time. For the same compound, the GI50 in the assay on OVCAR-8 is > 100 µM (inactive); in the assay on NCI-H226, > 100 µM (inactive); in the assay on A498 it was > 100 µM (inactive); in the assay on MDA-MB-435 it was > 100 µM (inactive); in the assay on DU-145, > 100 µM (inactive); in the assay with HCT-15, over 100 µM. In addition, the GI50 in the assay with SK-MEL-28 was > 100 µM (inactive); with EKVX, > 100 µM (inactive); in the assay with SR, 51.6 µM (inactive); in the assay with NCI-H460 it was > 100 µM (inactive); in the assay with SNB-19 it was > 100 µM (inactive).

`COc1cc([N+](=O)[O-])cc2c1NC(=O)C2(C)SC` (stereo unspecified): the GI50 is 31.6 µM (inactive) with MOLT-4; > 100 µM (inactive) with ACHN; 38.2 µM (inactive) with SNB-75; 69 µM (inactive) with SW-620; > 100 µM (inactive) in the assay on TK-10; > 100 µM (inactive) with SK-MEL-5. Further, the GI50 in the assay with OVCAR-8 was > 100 µM (inactive); in the assay on NCI-H226 it was > 100 µM (inactive); in the assay on A498 it was > 100 µM (inactive); in the assay on MDA-MB-435 it was 53.1 µM (inactive); with DU-145, > 100 µM (inactive); in the assay on HCT-15, over 100 µM. Further, the GI50 in the assay on SK-MEL-28 was > 100 µM (inactive); in the assay with EKVX, > 100 µM (inactive); with SR, 68.2 µM (inactive); in the assay on NCI-H460, > 100 µM (inactive); in the assay with NCI-H23 it was > 100 µM (inactive); in the assay on SNB-19, > 100 µM (inactive).

In the case of `C/C(=N\NC(=S)NCCCCNC(=S)N/N=C(\C)c1ccccn1)c1ccccc1`, the GI50 in the assay on MOLT-4 is 0.556 µM (active); in the assay with ACHN, 0.601 µM (active); with SNB-75 it was 0.993 µM (active); in the assay with TK-10 it was 0.839 µM (active); in the assay with SK-MEL-5, 0.714 µM (active); in the assay with OVCAR-8, 0.337 µM (active). Moreover, the GI50 in the assay with A498 is 3.05 µM (inactive); in the assay with MDA-MB-435 it was > 100 µM (inactive); with DU-145, 0.979 µM (active); in the assay with HCT-15, 0.484 µM; in the assay with SK-MEL-28, 2.05 µM (inactive); with EKVX, 2.23 µM (inactive). The GI50 in the assay with SR is 0.317 µM (active); with SF-539 it was 1.11 µM (active); in the assay with NCI-H460 it was 0.481 µM (active); in the assay with NCI-H23, 2.73 µM (inactive); in the assay on SNB-19, > 24.8 µM (inactive).

`CC1(C)CCCC2(C)C3=C(CCC12)C(=O)OC3` (stereo unspecified): the GI50 in the assay with MOLT-4 is 18.3 µM (inactive); with ACHN, > 100 µM (inactive); with SNB-75 it was > 100 µM (inactive); in the assay with SW-620, > 100 µM (inactive); with TK-10, > 100 µM (inactive); in the assay on SK-MEL-5, 42.7 µM (inactive). Moreover, the GI50 was > 100 µM (inactive) in the assay on OVCAR-8; > 100 µM (inactive) in the assay on NCI-H226; > 100 µM (inactive) with A498; > 100 µM (inactive) in the assay on MDA-MB-435; > 100 µM (inactive) in the assay on DU-145; 87.9 µM in the assay with HCT-15. Also, the GI50 in the assay with SK-MEL-28 was > 100 µM (inactive); in the assay on EKVX it was > 100 µM (inactive); with SR, 39.4 µM (inactive); with SF-539, > 100 µM (inactive); with NCI-H23, > 100 µM (inactive).

As to `N=C1N(S(=O)(=O)c2ccccc2)[C@@H](Cc2ccccc2)[C@H](c2ccccc2)C1(c1ccccc1)c1ccccc1`, the GI50 in the assay on MOLT-4 is 16.8 µM (inactive); in the assay on ACHN it was > 100 µM (inactive); in the assay on SNB-75, > 100 µM (inactive); in the assay on SW-620, > 100 µM (inactive); in the assay on TK-10, > 100 µM (inactive); in the assay with SK-MEL-5, 23.6 µM (inactive). Further, the GI50 was 41 µM (inactive) in the assay with OVCAR-8; > 100 µM (inactive) in the assay with A498; > 100 µM (inactive) with MDA-MB-435; > 100 µM (inactive) with DU-145; over 100 µM in the assay with HCT-15; > 100 µM (inactive) in the assay with SK-MEL-28. For the same compound, the GI50 in the assay with EKVX was 37.2 µM (inactive); with SR it was 41.3 µM (inactive); with SF-539, > 100 µM (inactive); with NCI-H460, 36.7 µM (inactive); in the assay with NCI-H23, 41.4 µM (inactive); in the assay with SNB-19 it was > 100 µM (inactive).

Regarding `NC(CC(O)(c1ccccc1)c1ccccc1)c1ccccc1S` (stereo unspecified), the GI50 is 21.4 µM (inactive) in the assay on MOLT-4; 13.1 µM (inactive) in the assay with ACHN; 15 µM (inactive) in the assay on SNB-75; 16.7 µM (inactive) with SW-620; 15.7 µM (inactive) with TK-10; 13 µM (inactive) with SK-MEL-5. Also, the GI50 in the assay on OVCAR-8 was > 10 µM (inactive); in the assay with NCI-H226, 15 µM (inactive); with A498 it was 17.6 µM (inactive); in the assay on MDA-MB-435, 14.8 µM (inactive); in the assay with DU-145 it was > 10 µM (inactive); with HCT-15, 15.2 µM. The GI50 is 17.5 µM (inactive) in the assay with SK-MEL-28; 7.94 µM (inactive) in the assay on EKVX; 23.6 µM (inactive) in the assay on SR; 18 µM (inactive) in the assay on NCI-H460; 18.5 µM (inactive) with NCI-H23; 16.4 µM (inactive) with SNB-19.

Turning to `NC1CC(=O)c2c1sc(Cl)c2Cl` (stereo unspecified), the GI50 with MOLT-4, in the assay with ACHN, with SNB-75, in the assay on SW-620, in the assay on TK-10 and in the assay with SK-MEL-5 was > 100 µM (inactive) each time. Moreover, the GI50 was > 100 µM (inactive) in the assay on OVCAR-8; > 100 µM (inactive) with A498; > 100 µM (inactive) in the assay on MDA-MB-435; > 100 µM (inactive) in the assay with DU-145; over 100 µM in the assay with HCT-15; > 100 µM (inactive) with SK-MEL-28. Besides, the GI50 in the assay on EKVX, in the assay with SR, in the assay with SF-539, in the assay with NCI-H460 and with SNB-19 was > 100 µM (inactive) each time.

For `COc1ccc(C2NC(=S)Nc3c2c(=O)oc2c3ccc3ccccc32)cc1` (stereo unspecified), the GI50 is 73.5 µM (inactive) with MOLT-4; 67.6 µM (inactive) in the assay on ACHN; 33.7 µM (inactive) with SNB-75; > 100 µM (inactive) in the assay on SW-620; 99.3 µM (inactive) in the assay on TK-10; > 100 µM (inactive) with SK-MEL-5. For the same compound, the GI50 was 92.3 µM (inactive) in the assay with OVCAR-8; 32.2 µM (inactive) with NCI-H226; 38.9 µM (inactive) in the assay with A498; 86.3 µM (inactive) in the assay with MDA-MB-435; > 100 µM (inactive) in the assay with DU-145; 53.7 µM in the assay with HCT-15. Besides, the GI50 in the assay with SK-MEL-28 was 52.5 µM (inactive); in the assay with EKVX it was 27.4 µM (inactive); with SR, 48.4 µM (inactive); in the assay on NCI-H460 it was 96.6 µM (inactive); in the assay with NCI-H23, 67.3 µM (inactive); in the assay with SNB-19, 35.7 µM (inactive).

On to `O=S(=O)(O)c1ccc2cc(/N=N/c3c(O)ccc4ccccc34)ccc2c1`, for which the GI50 with MOLT-4, with ACHN, with SNB-75, in the assay with SW-620, with TK-10 and in the assay on SK-MEL-5 was > 100 µM (inactive) each time. For the same compound, the GI50 with OVCAR-8 is > 100 µM (inactive); in the assay with NCI-H226 it was > 100 µM (inactive); in the assay with A498 it was > 100 µM (inactive); with MDA-MB-435 it was > 100 µM (inactive); with DU-145, > 100 µM (inactive); in the assay on HCT-15 it was over 100 µM. Besides, the GI50 in the assay on EKVX, with SR, in the assay on SF-539, in the assay on NCI-H460, in the assay on NCI-H23 and in the assay on SNB-19 was > 100 µM (inactive) each time.
